Test results taken from patent US7393812B2, “Methylidene mevalonates and their use as herbicides” (Dow AgroSciences LLC, priority 2004, dated 2008).

Experiments:
Type in all cases: in vivo
[1] = tested on: yellow nutsedge (Cyperus esculentus, CYPES); test: Post-emergent evaluation; conditions: data gathered 15 days after treatment, probit analysis
Protocol: (§1) Seeds of the desired test plant species were planted in Grace-Sierra MetroMix® 306 planting mixture, which typically has a pH of 6.0 to 6.8 and an organic matter content of about 30 percent, in plastic pots with a surface area of 64 square centimeters. When required to ensure good germination and healthy plants, a fungicide treatment and/or other chemical or physical treatment was applied. The plants were grown for 7-21 days in a greenhouse with an approximate 15 hr photoperiod which was maintained at about 23-29° C. during the day and 22-28° C. during the night. Nutrients and water were added on a regular basis and supplemental lighting was provided with overhead metal halide 1000-Watt lamps as necessary. The plants were employed for testing when they reached the first or second true leaf stage.
(§2) A weighed amount, determined by the highest rate to be tested, of each test compound was placed in a 20 mL glass vial and was dissolved in 4 mL of a 97:3 v/v (volume/volume) mixture of acetone and dimethyl sulfoxide (DMSO) to obtain concentrated stock solutions. […] The concentrated stock solutions obtained were diluted with an aqueous mixture containing acetone, water, isopropyl alcohol, DMSO, Atplus 411F crop oil concentrate, and Triton X-155 surfactant in a 48.5:39:10:1.5:1.0:0.02 v/v ratio to obtain spray solutions of known concentration. The solutions containing the highest concentration to be tested were prepared by diluting 2 mL aliquots of the stock solution with 13 mL of the mixture and lower concentrations were prepared by serial dilution of the stock solution. Approximately 1.5 mL aliquots of each solution of known concentration were sprayed evenly onto each of the test plant pots using a DeVilbiss atomizer driven by compressed air pressure of 2 to 4 psi ([…]) to obtain thorough coverage of each plant. Control plants were sprayed in the same manner with the aqueous mixture. In this test an application rate of 1 ppm results in the application of approximately 1 g/Ha.
(§3) The treated plants and control plants were placed in a greenhouse as described above and watered by sub-irrigation to prevent wash-off of the test compounds. After 2 weeks the condition of the test plants as compared with that of the untreated plants was determined visually and scored on a scale of 0 to 100 percent where 0 corresponds to no injury and 100 corresponds to complete kill. Species abbreviations as described for Table I with the following additions: soybean (Glycine max, GLXMA), rape (Brassica napus, BRSNN), chickweed (Stellaria media, STEME), cocklebur (Xanthium strumarium XANST), lambsquarters (Chenopodium album, CHEAL), violet (Viola tricolor, VIOTR), bindweed (Polygonum convolvulus, POLCO), spurge (Euphorbia heterophylla, EPHHL), Canada thistle (Cirsium arvense, CIRAR), corn (Zea mays, ZEAMX), rice (Oryza sativa, ORYSA), wheat (Triticum aestivum, TRZAS), crabgrass (Digitaria sanguinalis, DIGSA), shattercane (Sorghum vulgare, SORVU) and yellow nutsedge (Cyperus esculentus, CYPES).
(§4) By applying the well-accepted probit analysis as described by J. Berkson in Journal of the American Statistical […], 48, 565 (1953) and by D. Finney in “Probit Analysis” Cambridge University Press (1952), similar data can be used to calculate GR80 values, which are defined as growth reduction factors that correspond to the effective dose of herbicide required to kill or control 80 percent of a target plant. Species abbreviations are as previously defined.

[2] = tested on: crabgrass (Digitaria sanguinalis, DIGSA); test: Post-emergent evaluation; conditions: data gathered 15 days after treatment, probit analysis
Protocol: as §1, §2, §3, §4

[3] = tested on: morningglory (Ipomoea hederacea, IPOHE); test: Post-emergent evaluation; conditions: data gathered 15 days after treatment, probit analysis
Protocol: as §1, §2
as §3, with “After 2 weeks the condition of the test plants as compared with that of the untreated plants was determined visually and scored on a scale of 0 to 100 percent where 0 corresponds to no injury and 100 corresponds to complete kill.” left out
as §4

[4] = tested on: velvetleaf (Abutilon theophrasti, ABUTH); test: Post-emergent evaluation; conditions: data gathered 15 days after treatment, probit analysis
Protocol: as §1, §2
as §3, with “After 2 weeks the condition of the test plants as compared with that of the untreated plants was determined visually and scored on a scale of 0 to 100 percent where 0 corresponds to no injury and 100 corresponds to complete kill.” left out
as §4

[5] = tested on: giant foxtail (Setaria faberi, SETFA); test: Post-emergent evaluation; conditions: for GR80: data gathered 15 days after treatment, probit analysis; for % growth reduction at the lowest rate tested: 15 days after treatment
Protocol: as §1, §2
as §3, with “After 2 weeks the condition of the test plants as compared with that of the untreated plants was determined visually and scored on a scale of 0 to 100 percent where 0 corresponds to no injury and 100 corresponds to complete kill.” left out
as §4

[6] = tested on: barnyardgrass (Echinochloa crusgalli, ECHCG); test: Post-emergent evaluation; conditions: for GR80: data gathered 15 days after treatment, probit analysis; for % growth reduction at the lowest rate tested: 15 days after treatment
Protocol: as §1, §2
as §3, with “After 2 weeks the condition of the test plants as compared with that of the untreated plants was determined visually and scored on a scale of 0 to 100 percent where 0 corresponds to no injury and 100 corresponds to complete kill.” left out
as §4

[7] = tested on: shattercane (Sorghum vulgare, SORVU); test: Post-emergent evaluation; conditions: for GR80: data gathered 15 days after treatment, probit analysis
Protocol: as §1, §2
as §3, with “After 2 weeks the condition of the test plants as compared with that of the untreated plants was determined visually and scored on a scale of 0 to 100 percent where 0 corresponds to no injury and 100 corresponds to complete kill.” left out
as §4

[8] = tested on: chickweed (Stellaria media, STEME); test: Post-emergent evaluation; conditions: data gathered 15 days after treatment, probit analysis
Protocol: as §1, §2
as §3, with “After 2 weeks the condition of the test plants as compared with that of the untreated plants was determined visually and scored on a scale of 0 to 100 percent where 0 corresponds to no injury and 100 corresponds to complete kill.” left out
as §4

[9] = tested on: violet (Viola tricolor, VIOTR); test: Post-emergent evaluation; conditions: data gathered 15 days after treatment, probit analysis
Protocol: as §1, §2
as §3, with “After 2 weeks the condition of the test plants as compared with that of the untreated plants was determined visually and scored on a scale of 0 to 100 percent where 0 corresponds to no injury and 100 corresponds to complete kill.” left out
as §4

test plant species = test: Biological assays of the enantiomers (herbicidal activity); conditions: resolved enantiomers
Protocol: as §1, with “The plants were employed for testing when they reached the first or second true leaf stage.” left out
A weighed amount, determined by the highest rate to be tested, of each test compound was placed in a 20 mL glass vial and was dissolved in 4 mL of a 97:3 v/v (volume/volume) mixture of acetone and dimethyl sulfoxide (DMSO) to obtain concentrated stock solutions. […]
The treated plants and control plants were placed in a greenhouse as described above and watered by sub-irrigation to prevent wash-off of the test compounds. After 2 weeks the condition of the test plants as compared with that of the untreated plants was determined visually and scored on a scale of 0 to 100 percent where 0 corresponds to no injury and 100 corresponds to complete kill. […]

[10] = tested on: morningglory (Ipomoea hederacea, IPOHE); test: Synergistic herbicidal activity, foliar track sprayer; conditions: nonanoic acid 1120 g ae/ha alone, 14 days, 1% crop oil concentrate
Protocol: (§5) Methylidene mevalonate alone and in combination with nonanoic acid was applied to the foliage of rapidly growing plant material utilizing a track sprayer calibrated to deliver an application volume of 187 L/ha. These treatments were applied to both broadleaf and grass weed species. All treatments contained 1% crop oil concentrate. Assessment of herbicidal activity was performed visually relative to untreated controls after 14 days incubation in the greenhouse. Species abbreviations are as previously defined.

[11] = tested on: lambsquarters (Chenopodium album, CHEAL); test: as above; conditions: nonanoic acid 1120 g ae/ha alone, 14 days, 1% crop oil concentrate
Protocol: as §5

[12] = tested on: wild oats (Avena fatua, AVEFA); test: as above; conditions: nonanoic acid 1120 g ae/ha alone, 14 days, 1% crop oil concentrate
Protocol: as §5

[13] = tested on: crabgrass (Digitaria sanguinalis, DIGSA); test: as above; conditions: nonanoic acid 1120 g ae/ha alone, 14 days, 1% crop oil concentrate
Protocol: as §5

| Compound | GR80 [1] | GR80 [2] | GR80 [3] | GR80 [4] | GR80 [5] | % growth reduction at the lowest rate tested [5] | GR80 [6] | % growth reduction at the lowest rate tested [6] | GR80 [7] | GR80 [8] | GR80 [9] | GR80 ([1]; Potassium Salt) | GR80 ([2]; Potassium Salt) | GR80 ([3]; Potassium Salt) | GR80 ([4]; Potassium Salt) | GR80 ([5]; Potassium Salt) | GR80 ([6]; Potassium Salt) | GR80 ([7]; Potassium Salt) | GR80 ([8]; Potassium Salt) | GR80 ([9]; Potassium Salt) | other results |
| --- | --- | --- | --- | --- | --- | --- | --- | --- | --- | --- | --- | --- | --- | --- | --- | --- | --- | --- | --- | --- | --- |
| C=C(CO)C(C)(O)CC(=O)[O-].[K+] (racemic) | 603 g ae/ha | 1003 g ae/ha | 375 g ae/ha | 720 g ae/ha | < 375 g ae/ha | 95% | < 375 g ae/ha | 98% | 400 g ae/ha | 2089 g ae/ha | 1768 g ae/ha | – | – | – | – | – | – | – | – | – | – |
| C=C(CO)C(C)(O)CC(=O)[O-].[Na+] (racemic) | 375 g ae/ha | 774 g ae/ha | 416 g ae/ha | 965 g ae/ha | < 375 g ae/ha | 97% | < 375 g ae/ha | 98% | < 375 g ae/ha | 1358 g ae/ha | 2290 g ae/ha | – | – | – | – | – | – | – | – | – | % growth reduction at the lowest rate tested ([7]; lowest rate tested, 15 days after treatment): 93% |
| C=C(CO)C(C)(O)CC(=O)[O-].[K+] (single isomer, unassigned; (+)) [(+)-4-Methylidene Mevalonate, Potassium Salt] | – | – | – | – | – | – | – | – | – | – | – | 429 g ae/ha | 916 g ae/ha | 341 g ae/ha | 1135 g ae/ha | 183 g ae/ha | 351 g ae/ha | 490 g ae/ha | 1349 g ae/ha | 1865 g ae/ha | herbicidal activity (test plant species): herbicidal activity was manifested |
| C=C(CO)C(C)(O)CC(=O)[O-].[K+] (single isomer, unassigned; (-)) [(−)-4-Methylidene Mevalonate, Potassium Salt] | – | – | – | – | – | – | – | – | – | – | – | >1500 g ae/ha | >1500 g ae/ha | >1500 g ae/ha | >1500 g ae/ha | >1500 g ae/ha | >1500 g ae/ha | >1500 g ae/ha | >1500 g ae/ha | >1500 g ae/ha | – |
| C=C1COC(=O)CC1(C)O (centres unmarked) [Methylidene Mevalonolactone] | 834 g ae/ha | 834 g ae/ha | 725 g ae/ha | 2266 g ae/ha | 430 g ae/ha | – | < 375 g ae/ha | 100% | 615 g ae/ha | 3032 g ae/ha | 2473 g ae/ha | – | – | – | – | – | – | – | – | – | – |
| CCCCCCCCC(=O)O [Nonanoic Acid, nonanoic acid, reference compound] | – | – | – | – | – | – | – | – | – | – | – | – | – | – | – | – | – | – | – | – | Actual Injury % growth reduction [10]: 0%; Actual Injury % growth reduction [11]: 0%; Actual Injury % growth reduction [12]: 0%; Actual Injury % growth reduction [13]: 0% |
